Data: patent US10544143B2, “4-azaindole compounds” (BRISTOL-MYERS SQUIBB COMPANY, priority 2017, dated 2020)

Experiments:
[1] = biological target: human TLR9 (Homo sapiens (Human), UniProt Q9NR96); assay: TLR9 inhibition reporter assay (HEK-Blue SEAP); details: read-out: TLR9 IC50; HEK-Blue cells overexpressing human TLR9, SEAP reporter, ODN2006 5 nM;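 further: SEAP driven by an IFN-β minimal promoter with NF-κB and AP-1 sites, read after 22 h, compounds dosed 0.05 nM–50 µM, inhibition scaled between agonist plus DMSO and reference-inhibitor wells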
[2] = biological target: human TLR8 (Homo sapiens (Human), UniProt Q9NR97); assay: TLR8 inhibition reporter assay (HEK-Blue SEAP); details: read-out: TLR8 IC50; HEK-Blue cells overexpressing human TLR8, SEAP reporter, R848 15.9 μM;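 further: SEAP driven by IFN-β minimal promoter carrying NF-κB and AP-1 sites, compounds dosed 0.05 nM to 50 µM for 22 h, inhibition scaled between agonist-plus-DMSO and reference-inhibitor wells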
[3] = biological target: human TLR7 (Homo sapiens (Human), UniProt Q9NYK1); assay: TLR7 inhibition reporter assay (HEK-Blue SEAP); assay type: cell-based; details: HEK-Blue cells overexpressing human TLR7, SEAP reporter, gardiquimod 7.5 μM
Chain of human TLR7 (Q9NYK1 27-1049): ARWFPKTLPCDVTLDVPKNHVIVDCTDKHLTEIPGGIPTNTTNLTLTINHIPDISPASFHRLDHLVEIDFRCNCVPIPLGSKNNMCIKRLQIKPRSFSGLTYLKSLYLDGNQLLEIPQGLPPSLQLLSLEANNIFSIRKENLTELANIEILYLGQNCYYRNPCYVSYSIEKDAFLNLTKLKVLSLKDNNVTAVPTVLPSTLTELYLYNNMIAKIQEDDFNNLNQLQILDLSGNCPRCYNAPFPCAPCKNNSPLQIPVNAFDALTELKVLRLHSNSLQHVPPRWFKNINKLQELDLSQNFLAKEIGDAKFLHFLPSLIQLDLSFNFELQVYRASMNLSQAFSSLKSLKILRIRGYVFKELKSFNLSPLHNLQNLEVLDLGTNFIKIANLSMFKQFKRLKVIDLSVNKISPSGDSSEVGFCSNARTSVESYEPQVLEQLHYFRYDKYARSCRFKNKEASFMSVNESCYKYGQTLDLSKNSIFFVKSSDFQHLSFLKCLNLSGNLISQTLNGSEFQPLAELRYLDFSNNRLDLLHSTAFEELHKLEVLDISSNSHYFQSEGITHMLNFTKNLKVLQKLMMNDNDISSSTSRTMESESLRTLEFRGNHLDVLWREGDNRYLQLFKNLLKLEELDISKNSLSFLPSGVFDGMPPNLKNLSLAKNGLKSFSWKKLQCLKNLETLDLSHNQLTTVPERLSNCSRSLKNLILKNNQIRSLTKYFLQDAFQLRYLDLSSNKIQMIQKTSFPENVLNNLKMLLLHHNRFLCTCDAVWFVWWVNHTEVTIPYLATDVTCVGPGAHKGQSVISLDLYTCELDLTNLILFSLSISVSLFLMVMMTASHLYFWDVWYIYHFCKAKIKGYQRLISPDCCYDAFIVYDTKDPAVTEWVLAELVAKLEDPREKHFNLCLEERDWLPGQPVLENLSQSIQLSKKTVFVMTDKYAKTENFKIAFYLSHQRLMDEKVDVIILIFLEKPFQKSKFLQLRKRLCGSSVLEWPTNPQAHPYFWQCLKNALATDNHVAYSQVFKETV

Chain of human TLR9 (Q9NR96 26-1032): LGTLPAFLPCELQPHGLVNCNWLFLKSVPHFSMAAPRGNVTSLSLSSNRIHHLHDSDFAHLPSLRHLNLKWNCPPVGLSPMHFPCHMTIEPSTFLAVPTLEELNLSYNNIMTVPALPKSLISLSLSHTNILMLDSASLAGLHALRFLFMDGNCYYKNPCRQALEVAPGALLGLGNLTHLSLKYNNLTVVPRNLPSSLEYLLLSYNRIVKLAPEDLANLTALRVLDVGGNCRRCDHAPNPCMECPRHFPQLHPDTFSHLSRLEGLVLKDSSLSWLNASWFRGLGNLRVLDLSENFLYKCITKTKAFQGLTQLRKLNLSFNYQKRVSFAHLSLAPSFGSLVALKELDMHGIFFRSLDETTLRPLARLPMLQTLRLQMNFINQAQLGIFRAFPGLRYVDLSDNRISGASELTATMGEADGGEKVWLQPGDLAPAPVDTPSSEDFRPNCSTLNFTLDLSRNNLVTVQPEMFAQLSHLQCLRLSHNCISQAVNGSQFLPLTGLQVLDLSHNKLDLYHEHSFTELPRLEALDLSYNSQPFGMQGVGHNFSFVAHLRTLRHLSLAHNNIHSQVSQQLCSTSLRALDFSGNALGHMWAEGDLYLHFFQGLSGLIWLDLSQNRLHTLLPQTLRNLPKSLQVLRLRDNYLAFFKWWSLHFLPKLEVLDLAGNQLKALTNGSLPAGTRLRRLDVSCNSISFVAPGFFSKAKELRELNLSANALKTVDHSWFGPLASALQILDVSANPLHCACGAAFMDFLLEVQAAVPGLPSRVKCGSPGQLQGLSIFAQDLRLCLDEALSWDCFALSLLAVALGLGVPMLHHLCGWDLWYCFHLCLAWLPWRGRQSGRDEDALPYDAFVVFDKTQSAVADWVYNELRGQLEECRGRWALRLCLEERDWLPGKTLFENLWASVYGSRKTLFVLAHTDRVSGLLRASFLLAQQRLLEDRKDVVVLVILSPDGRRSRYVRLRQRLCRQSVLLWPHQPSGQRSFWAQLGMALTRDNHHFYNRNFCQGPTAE
Chain of human TLR8 (Q9NR97 27-1041): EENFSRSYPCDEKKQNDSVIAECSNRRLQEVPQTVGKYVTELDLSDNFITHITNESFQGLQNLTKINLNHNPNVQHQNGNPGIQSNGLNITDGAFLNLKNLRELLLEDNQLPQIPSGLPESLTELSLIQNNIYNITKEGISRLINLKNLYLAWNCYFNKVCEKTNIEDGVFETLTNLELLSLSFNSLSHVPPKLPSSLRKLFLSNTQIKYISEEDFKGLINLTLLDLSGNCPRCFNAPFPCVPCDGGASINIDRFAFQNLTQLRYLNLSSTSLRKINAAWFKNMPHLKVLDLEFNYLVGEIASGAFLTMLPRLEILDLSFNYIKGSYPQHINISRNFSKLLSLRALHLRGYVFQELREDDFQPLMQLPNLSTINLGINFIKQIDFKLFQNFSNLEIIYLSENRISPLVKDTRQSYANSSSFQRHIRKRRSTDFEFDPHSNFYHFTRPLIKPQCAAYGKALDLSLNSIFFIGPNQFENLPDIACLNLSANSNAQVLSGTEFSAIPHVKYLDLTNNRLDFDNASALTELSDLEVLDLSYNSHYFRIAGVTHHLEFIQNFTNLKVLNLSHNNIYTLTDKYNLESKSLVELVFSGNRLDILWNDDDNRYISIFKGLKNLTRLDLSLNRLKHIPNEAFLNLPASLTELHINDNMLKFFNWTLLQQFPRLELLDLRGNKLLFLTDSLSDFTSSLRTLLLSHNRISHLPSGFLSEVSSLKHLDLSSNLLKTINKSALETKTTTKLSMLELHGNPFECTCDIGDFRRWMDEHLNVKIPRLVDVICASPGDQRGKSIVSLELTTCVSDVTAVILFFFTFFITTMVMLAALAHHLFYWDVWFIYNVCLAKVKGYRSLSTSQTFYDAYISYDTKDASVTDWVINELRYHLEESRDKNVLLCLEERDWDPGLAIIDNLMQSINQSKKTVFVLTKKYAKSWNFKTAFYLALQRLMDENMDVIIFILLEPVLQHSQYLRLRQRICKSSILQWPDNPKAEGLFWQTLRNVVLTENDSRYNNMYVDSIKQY

| Compound | IC50 [1] [nM] | IC50 [2] [nM] | IC50 [3] [nM] |
| --- | --- | --- | --- |
| COc1cc(-c2[nH]c3ccc(OC4CCN(CC(C)(C)O)CC4)nc3c2C(C)C)cn2ncnc12 [Example 613, 1-(4-((3-isopropyl-2-(8-methoxy-[1,2,4]triazolo[1,5-a]pyridin-6-yl)-1H-pyrrolo[3,2-b]pyridin-5-yl)oxy)piperidin-1-yl)-2-methylpropan-2-ol] | 1240 | 3.2 | 2 |
| COc1cc(-c2[nH]c3ccc(OC4CCC(N(C)C)CC4)nc3c2C(C)C)cn2ncnc12 (stereo not drawn) [Example 614, 4-((3-isopropyl-2-(8-methoxy-[1,2,4]triazolo[1,5-a]pyridin-6-yl)-1H-pyrrolo[3,2-b]pyridin-5-yl)oxy)-N,N-dimethylcyclohexan-1-amine] | 1010 | 13 | 1.9 |
| Cc1c(-c2[nH]c3ccc(C4CC(N(C)C(=O)CN(C)C)C4)nc3c2C(C)C)cn2ncnc2c1C (stereo not drawn) [Example 615] | 1960 | 7.9 | 2.4 |
| COc1cc(-c2[nH]c3ccc(C4CC(NCC5(C)COC5)C4)nc3c2C(C)C)cn2ncnc12 (stereo not drawn) [Example 616] | 1280 | 1.5 | 3.6 |
| Cc1c(-c2[nH]c3ccc(C4CC(N)C4)nc3c2C(C)C)cn2ncnc2c1C (stereo not drawn) [Example 617] | 20500 | 1320 | 2220 |
| Cc1c(-c2[nH]c3ccc(C4CC(N(C)C)C4)nc3c2C(C)C)cn2ncnc2c1C (stereo not drawn) [Example 618] | 3700 | 4.6 | 4.8 |
| COc1cc(-c2[nH]c3ccc(C4CC(NC(=O)CN(C)C)C4)nc3c2C(C)C)cn2ncnc12 (stereo not drawn) [Example 619] | 865 | 3 | 0.43 |
| COc1cc(-c2[nH]c3ccc(C4CC(N)C4)nc3c2C(C)C)cn2ncnc12 (stereo not drawn) [Example 620] | 223 | 2.4 | 0.73 |
| Cc1c(-c2[nH]c3ccc(C4CC(N(C)CCS(C)(=O)=O)C4)nc3c2C(C)C)cn2ncnc2c1C (stereo not drawn) [Example 621] | 14700 | 7.5 | 7 |
| Cc1c(-c2[nH]c3ccc(C4CC(N(C)CC(=O)N(C)C)C4)nc3c2C(C)C)cn2ncnc2c1C (stereo not drawn) [Example 622] | 5070 | 14 | 30 |
| Cc1c(-c2[nH]c3ccc(C4CC(N(C)C)C4)nc3c2C(C)C)cn2ncnc2c1C (stereo not drawn) [Example 623] | 3130 | 2 | 1.6 |
| Cc1c(-c2[nH]c3ccc(C4CC(NCCS(C)(=O)=O)C4)nc3c2C(C)C)cn2ncnc2c1C (stereo not drawn) [Example 624] | 2570 | 2 | 3 |
| COc1cc(-c2[nH]c3ccc(C4CC(N(C)C(=O)CN(C)C)C4)nc3c2C(C)C)cn2ncnc12 (stereo not drawn) [Example 625] | 978 | 10 | 0.72 |
| Cc1c(-c2[nH]c3ccc(C4CC(N(C)CC5(C)COC5)C4)nc3c2C(C)C)cn2ncnc2c1C (stereo not drawn) [Example 626] | 13500 | 8 | 29 |
| COc1cc(-c2[nH]c3ccc(C4CC(N(C)CC(=O)N(C)C)C4)nc3c2C(C)C)cn2ncnc12 (stereo not drawn) [Example 627] | 4500 | 18 | 7.9 |
| CNC(=O)CNC1CC(c2ccc3[nH]c(-c4cc(OC)c5ncnn5c4)c(C(C)C)c3n2)C1 (stereo not drawn) [Example 628] | 343 | 3.3 | 2.1 |
| COc1cc(-c2[nH]c3ccc(C4CC(N(C)C)C4)nc3c2C(C)C)cn2ncnc12 (stereo not drawn) [Example 629] | 1920 | 6.5 | 2.6 |
| COc1cc(-c2[nH]c3ccc(C4CC(N(C)C(=O)CN(C)C)C4)nc3c2C(C)C)cn2ncnc12 (stereo not drawn) [Example 630] | 1280 | 14 | 1.9 |
| CNC(=O)CNC1CC(c2ccc3[nH]c(-c4cn5ncnc5c(C)c4C)c(C(C)C)c3n2)C1 (stereo not drawn) [Example 631] | 3070 | 1.9 | 4 |
| COc1cc(-c2[nH]c3ccc(C4CC(NC5CCOCC5)C4)nc3c2C(C)C)cn2ncnc12 (stereo not drawn) [Example 632] | 439 | 2.2 | 3.1 |
| Cc1c(-c2[nH]c3ccc(C4CC(N(CC5(C)COC5)CC5(C)COC5)C4)nc3c2C(C)C)cn2ncnc2c1C (stereo not drawn) [Example 633] | 25500 | 33 | 40 |
| COc1cc(-c2[nH]c3ccc(C4CC(NCCS(C)(=O)=O)C4)nc3c2C(C)C)cn2ncnc12 (stereo not drawn) [Example 634] | 2370 | 3 | 2 |
| Cc1c(-c2[nH]c3ccc(C4CC(NC5CCOCC5)C4)nc3c2C(C)C)cn2ncnc2c1C (stereo not drawn) [Example 635] | 1780 | 1.1 | 5.7 |
| Cc1c(-c2[nH]c3ccc(C4CC(N(C)CCS(C)(=O)=O)C4)nc3c2C(C)C)cn2ncnc2c1C (stereo not drawn) [Example 636] | 21600 | 28 | 46 |

| Compound | IC50 [1] [nM] | IC50 [2] [nM] | IC50 [3] [nM] |
| --- | --- | --- | --- |
| Cc1c(-c2[nH]c3ccc(C4CC(NCC5(C)COC5)C4)nc3c2C(C)C)cn2ncnc2c1C (stereo not drawn) [Example 637] | 1360 | 0.53 | 3.8 |
| COc1cc(-c2[nH]c3ccc(C4CC(NC(=O)CN(C)C)C4)nc3c2C(C)C)cn2ncnc12 (stereo not drawn) [Example 638] | 1270 | 7.3 | 2.9 |
| COc1cc(-c2[nH]c3ccc(C4CC(N(C)C)C4)nc3c2C(C)C)cn2ncnc12 (stereo not drawn) [Example 639] | 1470 | 1.9 | 0.98 |
| COc1cc(-c2[nH]c3ccc(C4CC(N(C)CCS(C)(=O)=O)C4)nc3c2C(C)C)cn2ncnc12 (stereo not drawn) [Example 640] | 13500 | 4.9 | 4.9 |
| Cc1c(-c2[nH]c3ccc(C4CC(N(C)CC(C)(C)O)C4)nc3c2C(C)C)cn2ncnc2c1C (stereo not drawn) [Example 641] | 3340 | 3.5 | 9.2 |
| COc1cc(-c2[nH]c3ccc(C4CC(N(C)CCS(C)(=O)=O)C4)nc3c2C(C)C)cn2ncnc12 (stereo not drawn) [Example 642] | 18100 | 26 | 14 |
| COc1cc(-c2[nH]c3ccc(C4CC(N(C)CC5(C)COC5)C4)nc3c2C(C)C)cn2ncnc12 (stereo not drawn) [Example 643] | 3170 | 5.3 | 5.4 |
| Cc1c(-c2[nH]c3ccc(C4CC(NC(=O)CN(C)C)C4)nc3c2C(C)C)cn2ncnc2c1C (stereo not drawn) [Example 644] | 2690 | 4.5 | 2.7 |
| COc1cc(-c2[nH]c3ccc(C4CN(CC(N)=O)C4)nc3c2C(C)C)cn2ncnc12 [Example 645] | 4090 | 303 | 21 |
| Cc1c(-c2[nH]c3ccc(C4CN(CC(N)=O)C4)nc3c2C(C)C)cn2ncnc2c1C [Example 646] | 4140 | 11 | 2.1 |
| COc1cc(-c2[nH]c3ccc(C4CN(CCS(C)(=O)=O)C4)nc3c2C(C)C)cn2ncnc12 [Example 647] | 5890 | 26 | 2.3 |
| COc1cc(-c2[nH]c3ccc(C4CNC4)nc3c2C(C)C)cn2ncnc12 [Example 648] | 2070 | 40 | 2.1 |
| Cc1c(-c2[nH]c3ccc(C4CNC4)nc3c2C(C)C)cn2ncnc2c1C [Example 649, 6-(5-(azetidin-3-yl)-3-isopropyl-1H-pyrrolo[3,2-b]pyridin-2-yl)-7,8-dimethyl-[1,2,4]triazolo[1,5-a]pyridine] | 3280 | 10 | 6.2 |
| Cc1c(-c2[nH]c3ccc(C4CN(C(=O)CN(C)C)C4)nc3c2C(C)C)cn2ncnc2c1C [Example 650] | 3120 | 18 | 6.7 |
| COc1cc(-c2[nH]c3ccc(C4CN(Cc5c[nH]nn5)C4)nc3c2C(C)C)cn2ncnc12 [Example 651] | 687 | 24 | 1.7 |
| COc1cc(-c2[nH]c3ccc(C4CN(C(=O)CN(C)C)C4)nc3c2C(C)C)cn2ncnc12 [Example 652] | 1600 | 22 | 3 |
| Cc1c(-c2[nH]c3ccc(C4CN(CCS(C)(=O)=O)C4)nc3c2C(C)C)cn2ncnc2c1C [Example 653, 6-(3-isopropyl-5-(1-(2-(methylsulfonyl)ethyl)azetidin-3-yl)-1H-pyrrolo[3,2-b]pyridin-2-yl)-7,8-dimethyl-[1,2,4]triazolo[1,5-a]pyridine] | 13200 | 13 | 5.5 |
| Cc1c(-c2[nH]c3ccc(C4CN(CC(C)(C)O)C4)nc3c2C(C)C)cn2ncnc2c1C [Example 654] | 4920 | 9.6 | 6.4 |
| COc1cc(-c2[nH]c3ccc(C4CN(C(C)C)C4)nc3c2C(C)C)cn2ncnc12 [Example 655] | 2070 | 11 | 1.4 |
| Cc1c(-c2[nH]c3ccc(C4CN(C(C)C)C4)nc3c2C(C)C)cn2ncnc2c1C [Example 656] | 1850 | 4.7 | 1.4 |
| COc1cc(-c2[nH]c3ccc(C4CN(CC(C)(C)O)C4)nc3c2C(C)C)cn2ncnc12 [Example 657] | 842 | 10 | 2.1 |
| Cc1c(-c2[nH]c3ccc(C4CN(C(C)C)CCO4)nc3c2C(C)C)cn2ncnc2c1C (stereo not drawn) [Example 658] | 13600 | 8.2 | 3.8 |
| COc1cc(-c2[nH]c3ccc(C4CN(C5CCOCC5)CCO4)nc3c2C(C)C)cn2ncnc12 (stereo not drawn) [Example 659] | 8540 | 24 | 12 |
| COc1cc(-c2[nH]c3ccc(C4CN(C(C)C)CCO4)nc3c2C(C)C)cn2ncnc12 (stereo not drawn) [Example 660, 4-isopropyl-2-(3-isopropyl-2-(8-methoxy-[1,2,4]triazolo[1,5-a]pyridin-6-yl)-1H-pyrrolo[3,2-b]pyridin-5-yl)morpholine] | 14400 | 15 | 3.3 |
